Key:
[1] = test system: PDAC cell lines: MIA PaCa-2; PANC-1; Capan-1; AsPC-1; assay: Cell proliferation / viability assay (CellTiter-Glo); format: cell-based; details: for cell proliferation (viability): PDAC cells, 48 h and 72 h, Cell-Titer Glo
Protocol: FIGS. 2A-2D are viability curves of DMDAPatA and DMPatA in four representative PDAC cell lines: MIA PaCa-2; Panc-1; Capan-1; and AsPC-1. PDAC cell lines were treated with DMPatA and DMDAPatA at the indicated concentrations for 48 h and 72 h. Cell viability was determined using Cell-Titer Glo (Promega). Viability (%, Y-axis) was plotted against drug concentration (log nM, X-axis). In the figures, MZ is DMPatA and PatA is DMDAPatA.
See Example 2. FIGS. 2A-2D are viability curves of DMDAPatA and DMPatA in four representative PDAC cell lines: MIA PaCa-2; PANC-1; Capan-1; and AsPC-1.
In this example, the effectiveness of DMPatA and DMDAPatA in reducing the proliferation of PDAC cancer cell lines is described.
Cell viability was measured using CellTiter-Glo® reagent (Promega, #G7570), according to the manufacturer's instructions. Briefly, cells were seeded at a density of […] in white 96-well plates and allowed to grow overnight. Cells were then treated with/without the combination and single agents as described earlier and incubated 37° C. and 5% CO2 for appropriate time points. After incubation assay reagent was added to the cells and luminescent signal values were quantified using microplate reader (PHERAstar® FS, BMG LABTECH, Ortenberg, Germany).

[2] = test system: Cyclin D1; assay: Western blot of oncoproteins in PDAC cell lines; format: cell-based; details: PDAC cell lines MIA PaCa-2 and AsPC-1, western blot
From the text: (§1) FIGS. 3A and 3B are images of western blots showing the effect of DMDAPatA and DMPatA in PDAC cell lines (MiaPaca-2 and AsPc-1). In the figures, MZ735 is DMPatA and PatA is DMDAPatA.
(§2) FIGS. 5A and 5B are images of western blots showing the effect of DMPatA and DMDAPatA on oncoproteins c-MYC and Cyclin D1 in PDAC cell lines: MIA PaCa-2; PANC-1; Capan-1; and AsPC-1. In the figures, MZ is DMPatA and PatA is DMDAPatA.
(§3) eIF4A inhibitors selectively repress the expression levels of key proteins in PDAC cell lines. FIGS. 3A and 3B are images of western blots showing the effect of DMDAPatA and DMPatA in PDAC cell lines (MIA PaCa-2 and AsPC-1). […] These proteins are commonly used as controls in western blot analysis and are so-called because they are typically not susceptible to agents that alter gene or protein expression.
(§4) FIGS. 5A and 5B are images of western blots showing the effect of DMPatA and DMDAPatA on oncoproteins c-MYC and Cyclin D1 in PDAC cell lines: MIA PaCa-2; PANC-1; Capan-1; and AsPC-1.

[3] = test system: c-MYC; assay: Western blot of oncoproteins in PDAC cell lines; format: cell-based; details: PDAC cell lines MIA PaCa-2 and AsPC-1, western blot
From the text: as §1, §2, §3, §4

[4] = test system: hyaluronic acid; assay: Hyaluronic acid staining (biotinylated-HABP, confocal imaging, CTCF); format: cell-based; details: MIA PaCa-2 cells, 5 nM DMPatA, 24 h versus untreated control, CTCF (P<0.05)
Protocol: (§5) CD44 is the cell surface receptor for hyaluronic acid. Dense stroma with high levels of hyaluronic acid and extracellular matrix are among factors that are said to contribute to drug resistance in PDAC due to reduced permeability of anticancer therapies. Reduction of CD44 could facilitate the activity of chemotherapy or other combination therapy. MIA PaCa-2 cells were treated with 5 nM of DMPatA for 24 h versus untreated control. Cells were stained for HA using biotinylated-HABP and anti-CD44. FIG. 6A compares the analysis of the corrected total cell fluorescence (CTCF) based on data extracted from confocal imaging (P<0.05) and FIG. 6B compares western blot showing the effect of DMPatA and DMDAPatA on stromal proteins HAS3 and CD44. In the figures, MZ and MZ735 are DMPatA and PatA is DMDAPatA.
(§6) MIA PaCa-2 cells were treated with 5 nM of DMPatA for 24 h versus untreated control. Cells were stained for HA using biotinylated-HABP and anti-CD44. FIG. 6A compares the analysis of the corrected total cell fluorescence (CTCF) based on data extracted from confocal imaging (P<0.05) and FIG. 6B compares western blot showing the effect of DMPatA and DMDAPatA on stromal proteins HAS3 and CD44.

[5] = test system: CD44; assay: CD44 level (anti-CD44 confocal imaging, western blot); format: cell-based; details: MIA PaCa-2 cells, 5 nM DMPatA, 24 h, CTCF (P<0.05)
Protocol: as §5, §6

[6] = Protein binding in human plasma; format: in vitro ADME
[7] = compared with parent natural product PatA; cited from earlier work
[8] = test system: Mia-Paca-2 cells; assay: Mouse xenograph model (subcutaneous Mia-Paca-2 tumors); format: in vivo, female athymic nude mice
From the text: In this example, the effectiveness of DMPatA in reducing tumor size in a mouse xenograph model is described.
Intraperitoneal therapy for PDAC. One of the most difficult complications of pancreatic cancer is the development of peritoneal carcinomatosis, which may occur as the presenting manifestation of PDAC, much as occurs with ovarian cancer, or may appear late in the course of the disease. In either case, the prognosis for peritoneal carcinomatosis and cytology-positive ascites is grim, at times portending survival of only a few weeks. […] The second major problem is that recurrent ascites requires frequent large volume paracentesis—which depletes the patient of protein and nutrients. […] Des-methyl pateamine A (DMPatA, MZ735) can be used as a novel intraperitoneal therapy able to directly treat intraperitoneal carcinomatosis. In certain embodiments, the safe intraperitoneal dose is 0.075-0.1 mg/kg, as established in a mouse xenograpgh model.
Fifteen female athymic nude mice were implanted with 5×10^6 Mia-Paca-2 cells, injected subcutaneously into the right flank with 50% Matrigel. Once tumors reached 100-200 mm^3 in volume, mice were randomized and enrolled into the study with three treatment groups including vehicle, MZ735 0.075, MZ735 0.1 mg/kg.
Mice were dosed once every four days interperitoneally (IP) for 28 days. Weights were taken twice per week to ensure overall health. All formulations were prepared on a day prior to, or on the day of dosing, using a serial dilution method and stored at 4° C. Formulations for this study were made using a vehicle of 10% Ethanol, 10% Cremophor EL, 4% glucose, and 76% PBS.
Body weights and tumor measurements were recorded twice weekly per OPTIC core-Tumor Growth Measurement at Columbia University.
At the end of the study mice were euthanized via CO2 asphyxiation, per IACUC approved Euthanasia protocol at Columbia University.

[9] = test system: GAPDH and beta-actin; assay: Western blot of housekeeping proteins; format: cell-based; details: PDAC cell lines
From the text: as §1, §3

| Compound | cell proliferation (viability) [1] | protein level of Cyclin D1 [2] | protein level of c-MYC [3] | levels of hyaluronic acid [4] | levels of CD44 [5] | protein binding in human plasma [6] | stability relative to PatA [7] | volume of subcutaneously implanted tumors ([8]; 0.075-0.1 mg/kg IP once every four days for 28 days, Mia-Paca-2 xenograft) | absorption via the peritoneum ([8]; intraperitoneal dose 0.075-0.1 mg/kg, mouse) | safe intraperitoneal dose ([8]; mouse xenograph model, intraperitoneal) | potency relative to DMDAPatA ([1]; viability curves in four PDAC cell lines) | expression of housekeeping proteins GAPDH and beta-actin [9] |
| --- | --- | --- | --- | --- | --- | --- | --- | --- | --- | --- | --- | --- |
| CC(/C=C/C(C)=C/[C@@H]1Cc2nc(cs2)CCCCC(=O)O[C@@H](C)C/C(C)=C/C=C\C(=O)O1)=C\CN(C)C [DMDAPatA, des-methyl des-amino pateamine A] | inhibit cell proliferation | inhibiting the protein level | inhibiting the protein level | reduce the levels | reduce the levels | highly protein bound | more stable | – | – | – | – | – |
| des-methyl pateamine A [DMPatA] | inhibit cell proliferation | inhibiting the protein level | inhibiting the protein level | reduce the levels | reduce the levels | – | – | reduce the volume of subcutaneously implanted tumors | can be absorbed via the peritoneum | 0.075 to 0.1 mg/kg | greater potency relative to DMDAPatA | stably expressed |

Reference: patent publication US20240335428A1, “PATEAMINE A DERIVATIVE FOR TREATING PANCREATIC CANCER” (Baylor University, priority 2023, published 2024)
